Patent publication US9695155B2, “Herbicidal substituted pyrimidinyloxy benzene compounds” (E. I. DU PONT DE NEMOURS AND COMPANY, priority 2013, dated 2017)

Columns and labels:
giant foxtail [1] = assay: Test A preemergence; format: in vivo, Setaria faberii; conditions: for Plant response rating, Foxtail, Giant: 125 g ai/ha, 0 to 100 scale where 0 is no effect and 100 is complete control; for Foxtail, Giant plant response rating: 500 g ai/ha, 0 to 100 scale, 0 no effect, 100 complete control, approx. 10 days
In short: (§1)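 Injury scores run from 0, no effect, to 100, complete control, judged by eye against untreated plants roughly 10 days after treatment. Chemicals carried a surfactant in a non-phytotoxic solvent and went onto loam–sand soil preemergence or onto one- to two-leaf seedlings postemergence.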

pigweed [2] = assay: Test A preemergence; format: in vivo, Amaranthus retroflexus; conditions: for Plant response rating, Pigweed: 125 g ai/ha, 0 to 100 scale where 0 is no effect and 100 is complete control; for Pigweed plant response rating: 500 g ai/ha, 0 to 100 scale, 0 no effect, 100 complete control, approx. 10 days
In short: as §1

velvetleaf = assay: Test A postemergence; format: in vivo, Abutilon theophrasti; conditions: 0 to 100 scale where 0 is no effect and 100 is complete control
In short: as §1

rice = assay: Test B flooded paddy test; format: in vivo, Oryza sativa; conditions: Flood, 250 g ai/ha; 0 to 100 scale where 0 is no effect and 100 is complete control
In short: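 2-leaf stage plants; pots flooded to 3 cm, compound added to paddy water, depth maintained. Greenhouse 13–15 d. Visual rating vs untreated controls, 0 (no effect) to 100 (complete control); dash = no result.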

giant foxtail [3] = assay: Test C preemergence; format: in vivo, Setaria faberii; conditions: for Foxtail, Giant plant response rating: preemergence; for Plant response rating, Foxtail, Giant: Preemergence, 31 g ai/ha, scale 0 to 100, 0 no effect, 100 complete control
In short: (§2)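 Visual injury score versus untreated controls, 0 = no effect, 100 = complete control, taken 13 to 15 days after treatment in the greenhouse. Pre-emergence pots held loam/sand; post-emergence plants grew in sphagnum peat/vermiculite mix and were sprayed at the 1- to 4-leaf stage.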

yellow nutsedge [4] = assay: Test C preemergence; format: in vivo, Cyperus esculentus; conditions: for Nutsedge, Yellow plant response rating: preemergence; for Plant response rating, Nutsedge, Yellow: Preemergence, 31 g ai/ha, scale 0 to 100, 0 no effect, 100 complete control
In short: as §2

pigweed [5] = assay: Test C preemergence; format: in vivo, Amaranthus retroflexus; conditions: for Pigweed plant response rating: preemergence; for Plant response rating, Pigweed: Preemergence, 31 g ai/ha, scale 0 to 100, 0 no effect, 100 complete control
In short: as §2

barnyardgrass [6] = assay: Test C preemergence; format: in vivo, Echinochloa crus-galli; conditions: for Barnyardgrass plant response rating: preemergence; for Plant response rating, Barnyardgrass: Preemergence, 31 g ai/ha, scale 0 to 100, 0 no effect, 100 complete control
In short: as §2

Italian ryegrass = assay: Test C postemergence; format: in vivo, Lolium multiflorum; conditions: for Plant response rating, Ryegrass, Italian: scale 0 to 100 (0 no effect, 100 complete control)
In short: as §2

wheat, winter = assay: Test C postemergence; format: in vivo, Triticum aestivum; conditions: for Plant response rating, Wheat: scale 0 to 100 (0 no effect, 100 complete control)
In short: as §2

galium = assay: Test C postemergence; format: in vivo, Galium aparine; conditions: for Galium plant response rating: 16 g ai/ha; for Galium plant response rating / Plant response rating, Galium: scale 0 to 100 (0 no effect, 100 complete control)
In short: as §2

corn = assay: Test C postemergence; format: in vivo, Zea mays; conditions: for Corn plant response rating: 16 g ai/ha; for Corn plant response rating / Plant response rating, Corn: scale 0 to 100 (0 no effect, 100 complete control)
In short: as §2

yellow nutsedge [7] = assay: Test C postemergence; format: in vivo, Cyperus esculentus; conditions: for Plant response rating, Nutsedge, Yellow: scale 0 to 100 (0 no effect, 100 complete control)
In short: as §2

barnyardgrass [8] = assay: Test C postemergence; format: in vivo, Echinochloa crus-galli; conditions: for Barnyardgrass plant response rating: 16 g ai/ha; for Barnyardgrass plant response rating / Plant response rating, Barnyardgrass: scale 0 to 100 (0 no effect, 100 complete control)
In short: as §2

kochia = assay: Test C postemergence; format: in vivo, Kochia scoparia; conditions: for Kochia plant response rating: 16 g ai/ha; for Kochia plant response rating / Plant response rating, Kochia: scale 0 to 100 (0 no effect, 100 complete control)
In short: as §2

[9] = 16 g ai/ha, scale 0 to 100 (0 no effect, 100 complete control)
[10] = 62 g ai/ha, scale 0 (no effect) to 100 (complete control)
[11] = 125 g ai/ha, scale 0 (no effect) to 100 (complete control)
[12] = Postemergence, 31 g ai/ha, 13 to 15 days
[13] = postemergence, visual rating, 13 to 15 days
[14] = 125 g ai/ha, postemergence, visual rating

CCOc1cnn(-c2c(C#N)cccc2Oc2ncc(Cl)cn2)c1 [Compound 92]
Plant response rating, Foxtail, Giant (giant foxtail [1]): 100 | Foxtail, Giant plant response rating (giant foxtail [1]): 100 | Plant response rating, Pigweed (pigweed [2]): 100 | Pigweed plant response rating (pigweed [2]): 100 | Plant response rating, Velvetleaf (velvetleaf; 125 g ai/ha): 100 | Plant response rating, Velvetleaf (velvetleaf; 500 g ai/ha): 100 | Plant response rating, Rice (rice): 20 | Foxtail, Giant plant response rating (giant foxtail [3]; [9]): 30 | Foxtail, Giant plant response rating (giant foxtail [3]; [10]): 100 | Foxtail, Giant plant response rating (giant foxtail [3]; [11]): 100 | Plant response rating, Foxtail, Giant (giant foxtail [3]): 98 | Nutsedge, Yellow plant response rating (yellow nutsedge [4]; [9]): 5 | Nutsedge, Yellow plant response rating (yellow nutsedge [4]; [10]): 50 | Nutsedge, Yellow plant response rating (yellow nutsedge [4]; [11]): 75 | Plant response rating, Nutsedge, Yellow (yellow nutsedge [4]): 5 | Pigweed plant response rating (pigweed [5]; [9]): 90 | Pigweed plant response rating (pigweed [5]; [10]): 100 | Pigweed plant response rating (pigweed [5]; [11]): 100 | Plant response rating, Pigweed (pigweed [5]): 85 | Barnyardgrass plant response rating (barnyardgrass [6]; [9]): 5 | Barnyardgrass plant response rating (barnyardgrass [6]; [10]): 100 | Barnyardgrass plant response rating (barnyardgrass [6]; [11]): 100 | Plant response rating, Barnyardgrass (barnyardgrass [6]): 75 | Plant response rating (0 to 100), Ryegrass, Italian (Italian ryegrass; 125 g ai/ha, postemergence): 35 | Plant response rating, Ryegrass, Italian (Italian ryegrass; [12]): 5 | Plant response rating, Ryegrass, Italian (Italian ryegrass; Postemergence, 62 g ai/ha): 5 | Plant response rating (0 to 100), Wheat (wheat, winter; 125 g ai/ha, postemergence): 5 | Plant response rating, Wheat (wheat, winter; [12]): 0 | Plant response rating, Wheat (wheat, winter; Postemergence, 62 g ai/ha): 0 | Galium plant response rating (galium; [13]): 70 | Plant response rating (0 to 100), Galium (galium; 125 g ai/ha, postemergence): 80 | Plant response rating, Galium (galium; [12]): 80 | Plant response rating, Galium (galium; Postemergence, 62 g ai/ha): 65 | Corn plant response rating (corn; [13]): 5 | Plant response rating (0 to 100), Corn (corn; 125 g ai/ha, postemergence): 5 | Plant response rating, Corn (corn; [12]): 5 | Plant response rating, Corn (corn; Postemergence, 62 g ai/ha): 5 | Plant response rating (0 to 100), Nutsedge, Yellow (yellow nutsedge [7]; 125 g ai/ha, postemergence): 5 | Plant response rating, Nutsedge, Yellow (yellow nutsedge [7]; [12]): 5 | Plant response rating, Nutsedge, Yellow (yellow nutsedge [7]; Postemergence, 62 g ai/ha): 5 | Barnyardgrass plant response rating (barnyardgrass [8]; [13]): 5 | Plant response rating (0 to 100), Barnyardgrass (barnyardgrass [8]; 125 g ai/ha, postemergence): 10 | Plant response rating, Barnyardgrass (barnyardgrass [8]; [12]): 5 | Plant response rating, Barnyardgrass (barnyardgrass [8]; Postemergence, 62 g ai/ha): 5 | Kochia plant response rating (kochia; [13]): 40 | Plant response rating (0 to 100), Kochia (kochia; 125 g ai/ha, postemergence): 85 | Plant response rating, Kochia (kochia; [12]): 60 | Plant response rating, Kochia (kochia; Postemergence, 62 g ai/ha): 80

N#Cc1cnn(-c2c(C#N)cccc2Oc2ncc(F)cn2)c1 [Compound 111]
Plant response rating, Foxtail, Giant (giant foxtail [1]): 100 | Foxtail, Giant plant response rating (giant foxtail [1]): 100 | Plant response rating, Pigweed (pigweed [2]): 100 | Pigweed plant response rating (pigweed [2]): 100 | Plant response rating, Velvetleaf (velvetleaf; 500 g ai/ha): 100 | Plant response rating, Rice (rice): 0 | Foxtail, Giant plant response rating (giant foxtail [3]; [9]): 15 | Foxtail, Giant plant response rating (giant foxtail [3]; [10]): 100 | Foxtail, Giant plant response rating (giant foxtail [3]; [11]): 100 | Plant response rating, Foxtail, Giant (giant foxtail [3]): 100 | Nutsedge, Yellow plant response rating (yellow nutsedge [4]; [9]): 0 | Nutsedge, Yellow plant response rating (yellow nutsedge [4]; [10]): 15 | Nutsedge, Yellow plant response rating (yellow nutsedge [4]; [11]): 50 | Plant response rating, Nutsedge, Yellow (yellow nutsedge [4]): 0 | Pigweed plant response rating (pigweed [5]; [9]): 75 | Pigweed plant response rating (pigweed [5]; [10]): 100 | Pigweed plant response rating (pigweed [5]; [11]): 100 | Plant response rating, Pigweed (pigweed [5]): 95 | Barnyardgrass plant response rating (barnyardgrass [6]; [9]): 5 | Barnyardgrass plant response rating (barnyardgrass [6]; [10]): 90 | Barnyardgrass plant response rating (barnyardgrass [6]; [11]): 100 | Plant response rating, Barnyardgrass (barnyardgrass [6]): 55 | Plant response rating, Ryegrass, Italian (Italian ryegrass; [14]): 0 | Plant response rating, Ryegrass, Italian (Italian ryegrass; Postemergence, 62 g ai/ha): 0 | Plant response rating, Wheat (wheat, winter; [14]): 5 | Plant response rating, Wheat (wheat, winter; Postemergence, 62 g ai/ha): 0 | Galium plant response rating (galium; [13]): 80 | Plant response rating, Galium (galium; [14]): 100 | Plant response rating, Galium (galium; Postemergence, 62 g ai/ha): 90 | Corn plant response rating (corn; [13]): 5 | Plant response rating, Corn (corn; [14]): 15 | Plant response rating, Corn (corn; Postemergence, 62 g ai/ha): 10 | Plant response rating, Nutsedge, Yellow (yellow nutsedge [7]; [14]): 5 | Plant response rating, Nutsedge, Yellow (yellow nutsedge [7]; Postemergence, 62 g ai/ha): 5 | Barnyardgrass plant response rating (barnyardgrass [8]; [13]): 5 | Plant response rating, Barnyardgrass (barnyardgrass [8]; [14]): 35 | Plant response rating, Barnyardgrass (barnyardgrass [8]; [12]): 5 | Plant response rating, Barnyardgrass (barnyardgrass [8]; Postemergence, 62 g ai/ha): 5 | Kochia plant response rating (kochia; [13]): 60 | Plant response rating, Kochia (kochia; [14]): 95 | Plant response rating, Kochia (kochia; Postemergence, 62 g ai/ha): 90
